According to article PMC10229426, “An optimized bioluminescent substrate for non-invasive imaging in the brain” (Nature Chemical Biology, 2023):
Where “and” joins values, the source holds several entries; their conditions need not be identical. Identical values can stand only once. Entries after “also recorded” stand apart in the source; their conditions may differ. One block for each compound: values may come before it.

Key:
[1] = probably due to acidity of the solution; cited from earlier work
AkaLuc = assay: Bioluminescence imaging of transgenic mice expressing AkaLuc in the brain; assay type: in vivo, mouse; conditions: 3.0- or 1.3-µmol doses
Excerpt: (§1) Transgenic reporter mice with LSL-CAG-luciferase (Antares, FLuc or AkaLuc) inserted at the H11 locus (H11P) were generated by φC31-mediated recombination in blastocysts[48] by the Stanford Transgenic, Knockout and Tumor Model Center. For substrate comparisons, 2- to 4-month-old transgenic mice doubly hemizygous for a Camk2a-cre (Jackson Laboratory, 005359), Vgat-IRES-cre (Jackson Laboratory), Vglut2-IRES-cre (Jackson Laboratory, 016963) or Alb-cre (Jackson Laboratory, 003574) driver and a CAG-LSL-Antares, CAG-LSL-AkaLuc or CAG-LSL-FLuc reporter were anesthetized by inhalation of isoflurane for 5 min. An electric shaver was used to remove scalp hair in Camk2a-cre, Vglut2-IRES-cre or Vgat-IRES-cre mice or abdominal hair in Alb-cre mice. Nair depilatory cream (Church and Dwight) was then applied to the shaved area for 1 min, and remaining hair was removed with a piece of sterile gauze. […]
(§2) For mice expressing Antares, indicated amounts of Fz were dissolved in 480 µl of a PEG-300-based formulation consisting of 10% glycerol, 10% ethanol, 10% hydroxypropylcyclodextrin and 35% PEG-300 in water, or indicated amounts of lyophilized Fz analogs with P-407 vehicle were reconstituted in 150–500 µl of DPBS buffer. […] Integrated luminescence was quantified using the Fiji version of the ImageJ program (NIH)[49], with further statistical analysis performed in GraphPad Prism (version 9.0.0).

Antares luciferase [2] = target: T1, Antares luciferase (Oplophorus gracilirostris, UniProt Q9GV45, A31E/A60N/A81I/F95D/I117V/K70R/L54V/L99Q/M102K/N193R/P142E/Q151K/Q38R/Q45L/V71I/Y165I); assay: Bioluminescence imaging of transgenic mice for substrate comparison (brain, Cre-driven Antares); assay type: in vivo, mouse
T1 construct: expressed in transfected cells; host or cells: transgenic mice with CAG-LSL-Antares at the H11 locus, crossed to Cre driver lines (neurons or liver)
T1 sequence (Q9GV45 other isoform, or with tags, fused parts or gaps with the stated changes): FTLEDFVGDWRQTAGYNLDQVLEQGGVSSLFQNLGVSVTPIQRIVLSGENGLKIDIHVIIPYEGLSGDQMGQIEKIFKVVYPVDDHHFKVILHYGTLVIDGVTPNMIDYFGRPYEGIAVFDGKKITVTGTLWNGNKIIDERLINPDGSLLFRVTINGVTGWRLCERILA
Excerpt: Transgenic reporter mice with LSL-CAG-luciferase (Antares, FLuc or AkaLuc) inserted at the H11 locus (H11P) were generated by φC31-mediated recombination in blastocysts[48] by the Stanford Transgenic, Knockout and Tumor Model Center. For substrate comparisons, 2- to 4-month-old transgenic mice doubly hemizygous for a Camk2a-cre (Jackson Laboratory, 005359), Vgat-IRES-cre (Jackson Laboratory), Vglut2-IRES-cre (Jackson Laboratory, 016963) or Alb-cre (Jackson Laboratory, 003574) driver and a CAG-LSL-Antares, CAG-LSL-AkaLuc or CAG-LSL-FLuc reporter were anesthetized by inhalation of isoflurane for 5 min. An electric shaver was used to remove scalp hair in Camk2a-cre, Vglut2-IRES-cre or Vgat-IRES-cre mice or abdominal hair in Alb-cre mice. Nair depilatory cream (Church and Dwight) was then applied to the shaved area for 1 min, and remaining hair was removed with a piece of sterile gauze. The area was then rinsed with DPBS and cleaned with 70% ethanol with a piece of sterile gauze.
For mice expressing Antares, indicated amounts of Fz were dissolved in 480 µl of a PEG-300-based formulation consisting of 10% glycerol, 10% ethanol, 10% hydroxypropylcyclodextrin and 35% PEG-300 in water, or indicated amounts of lyophilized Fz analogs with P-407 vehicle were reconstituted in 150–500 µl of DPBS buffer. For mice expressing FLuc, indicated amounts of D-luciferin were dissolved in PBS. For mice expressing AkaLuc, 3 μmol (1.0 mg) of AkaLumine-HCl (Sigma-Aldrich) was dissolved in 150 μl of 0.9% NaCl. Substrates were then injected into the peritoneal cavity in the left lower quadrant, with the maximum injectable volume at 480 µl. Immediately after substrate injection, bioluminescent images were acquired in an Ami HT bioluminescence imaging system running Aura software version 3.1 or 4.0 (Spectral Instruments Imaging) for 15–30 min at intervals of 1 min. For comparing substrates at 1.3 µmol, the following imager settings were used: emission filter open, field of view of 25 cm, f-stop of 1.2, binning of 2 × 2 and exposure time of 2 s. For comparison with >1.3-µmol substrates, the following settings were used: emission filter open, field of view of 25 cm, f-stop of 1.2, binning of 1 × 1 and exposure time of 1 s. Pseudocolor images and intensity scale bars were generated with Aura software. Integrated luminescence was quantified using the Fiji version of the ImageJ program (NIH)[49], with further statistical analysis performed in GraphPad Prism (version 9.0.0).

Antares luciferase [3] = target: T1, Antares luciferase; assay: Non-invasive detection of Antares in the liver (Alb-cre driver); assay type: in vivo, mouse; conditions: 1.3 µmol i.p.
Excerpt: as §1, §2

[4] = Solubility in aqueous formulation with poloxamer-407 (P-407); assay type: physicochemical
Description: Stock samples of solid formulated Fz analogs were prepared using the following protocol. First, P-407 (Pluronic F127) was placed into a screw-cap glass vial. The polymer was then heated to 75 °C in a water bath until melted. Fz analogs dissolved in ethanol were added to the hot polymer, mixing well with a thin spatula. Additional rinses of Fz analogs in ethanol were added to the hot polymer for quantitative transfer. The solvent was then removed under vacuum. This concentrated sample was diluted with water to make a dispensing mixture of 4–9 mM Fz analogs in water. Next, this aqueous stock was aliquoted into glass vials, frozen and lyophilized overnight to give a yellow cake. For i.p. injection into mice, DPBS (Corning, 21-031-CV) was added to the vial and rocked to create a clear solution.

[5] = Toxicity in mice: necropsy and histopathology; assay type: in vivo, C57BL/6 mice; design: key: 0: absent; 1: minimal; 2: mild; 3: moderate; 4: severe; conditions: 1 day, 4.2 µmol, 20 mg P-407; individual mice
Description: (§3) Male C57BL/6 mice of 2 months of age were killed by CO2 asphyxiation and cardiac exsanguination. All mice were weighed, and a complete gross examination of the external and internal organs was performed. […] Formalin-fixed tissues were processed routinely, embedded in paraffin, sectioned at 5 μm and stained with hematoxylin and eosin. All slides were blindly evaluated for histologic treatment-related effects (Supplementary Table 1) by a board-certified veterinary pathologist.

[6] = Toxicity in mice: necropsy and histopathology; assay type: in vivo, C57BL/6 mice; design: key to BMH, brain multifocal hemorrhage score / HN, hepatocellular necrosis score / RTD, renal tubular dilation score / RTDR, renal tubular degeneration and regeneration score: 0: absent; 1: minimal; 2: mild; 3: moderate; 4: severe; key to HMNH, heart myocardial necrosis and hemorrhage score: 0: no lesions; 1: <5% of myocardium affected; 2: 5-10% affected; 3: 10-25% affected; 4: >25% affected; key to LC, Liver capsule score: 0: normal; 1: segmental subcapsular necrosis +/- neutrophilic infiltrate; Total organ score: scale not given here
Description: as §3

[7] = i.p., CAG-LSL-Antares x Vgat-IRES-cre mice
[8] = 1 day, 4.2 µmol, 20 mg P-407, individual mice

Compound: CN(C)c1ccc(/C=C/C=C/C2=N[C@@H](C(=O)O)CS2)cc1 [AkaLumine]
toxicity of administered solution [1]: noticeable toxicity of the Akalumine solution to the skin and heart
duration of brain signal relative to Antares–CFz (AkaLuc): more sustained signal

Compound: Nc1cccc(-c2cn3c(=O)c(Cc4ccco4)nc-3c(Cc3ccccc3F)[nH]2)c1F [FFz, fluorofurimazine, reference compound]
brain signal distribution (Antares luciferase [2]; Antares driven by Camk2a-cre): signal predominantly from the hindbrain
brain signal distribution (Antares luciferase [2]; [7]): low brightness from the forebrain, higher signal from the hindbrain, and highest signal from regions in the head outside the brain
liver signal, 6 versus FFz (Antares luciferase [3]): brighter in the liver

Compound: O=c1c(Cc2ccco2)nc2c(Cc3ccccc3)[nH]c(-c3cccc(O)c3)cn1-2 [HFz, hydrofurimazine, reference compound]
brain signal brightness relative to Fz (Antares luciferase [2]; [7]): more than tenfold dimmer
brain signal distribution (Antares luciferase [2]; [7]): signal from the brain similar to Fz

relative solubility in aqueous formulation with P-407 [4]: reduced solubility
solubilization of 4.2 µmol in P-407 formulation ([4]; 4.2 µmol): incomplete solubilization
Compound: Cc1ccc(Cc2nc3c(Cc4ccccc4)[nH]c(-c4cccc(F)c4F)cn-3c2=O)o1 [compound 10]

Compound: Cc1ccc(Cc2nc3c(Cc4ccccc4F)[nH]c(-c4cccc(F)c4F)cn-3c2=O)o1 [compound 13]
brain brightness relative to 6 (Antares luciferase [2]; 1.3 µmol i.p. with 10 mg P-407): brighter
brain brightness relative to 6 (factor) (Antares luciferase [2]; 1.3 µmol i.p. with 10 mg P-407, Vglut2-IRES-cre or CaMKIIα-cre): 1.5–2.0
HPMC, heart perivascular myxomatous change score [5]: 0
HT, heart telangiectasia score [5]: 0
KCHMV, Kupffer cell hyperplasia and microvesicular vacuolation score [5]: 0
toxicity after a single i.p. injection ([6]; 4.2 µmol with 20 mg P-407, one injection): severe kidney pathology and weight loss; also recorded: more toxic than 6
BMH, brain multifocal hemorrhage score [6, 8]: 0
HMNH, heart myocardial necrosis and hemorrhage score [6, 8]: 0
HN, hepatocellular necrosis score [6, 8]: 0
LC, Liver capsule score [6, 8]: 0
RTD, renal tubular dilation score [6, 8]: 2 (5%–25% of tubules affected) (2×) and 3 (25%–50% of tubules affected)
RTDR, renal tubular degeneration and regeneration score [6, 8]: 3 (25%–50% of tubules affected) (2×) and 2 (5%–25% of tubules affected)
SRPHMV, splenic red pulp histiocytosis with microvesicular vacuolation score [6, 8]: 0
Total organ score [6, 8]: 5 and 4 and 6
∆ weight [6, 8]: –7.9%; also recorded: –7.2%; also recorded: –6.7%
